Key:
[1] = test system: primary neonate myocytes (cardiomyocytes); assay: Isolated heart cell (myocyte) preparation model of myocardial cell ischemia (Example 4); type: cell-based, rat; conditions: 37-111 micromolar
Text: Two-day old rat pups are removed from their mothers and placed in a sterile container. Pups are dipped quickly into 70% alcohol, then decapitated and the body is placed in an empty sterile tissue culture dish. An incision is made starting at the neck and progressing towards the belly, cutting through the sternum. The heart is removed and placed in a tissue culture dishes containing 1×HDS. The atria are trimmed, and the remaining ventricles are placed into a separate tissue culture dish containing 1×HDS, where they are sectioned into 3-4 pieces each. Ventricles are then transferred to a sterile 250 ml glass flask and the 1×HDS is removed. Twenty milliliters of pre-warmed collagenase solution are added to the ventricles, followed by incubation at 37° C. with shaking. After 30 minutes, the collagenase solution is removed and replaced with 20 ml fresh pre-warmed collagenase. Incubation is continued for an additional 30 minutes. At the end of the incubation, any tissue chunks are allowed to settle prior to removing the collagenase (containing the isolated cardiomyocytes) from the disrupted tissue pieces. The isolated myocytes are added to a 50 ml Falcon tube containing 2 ml Fetal Bovine Serum (FBS). […]
A small aliquot of the cell suspension is counted in a hemocytometer. […]

[2] = test system: myocardial infarction by left coronary artery occlusion; assay: Model of myocardial infarction: left coronary ligation (Example 5); type: in vivo, rat; conditions: dose of 0.67 mg/kg
Procedure: Male Sprague-Dawley weighing 250-320 g are allowed free access to water and commercial rodent diet under standard laboratory conditions. Room temperature is maintained at 20-23° C. and room illumination is on a 12/12-hour light/dark cycle. Animals are acclimatized to the laboratory environment 5 to 7 days prior to the study and are fasted overnight prior to surgery.
Rats are anaesthetized with Urethane (1.2-1.5 gm/kg). Core body temperature is maintained at 37° C. by using a heating blanket. The surgical area is shaved, and a ventral midline incision is made to expose the trachea and jugular area. A catheter (PE50) is placed in the jugular for administration of compound and maintenance anesthesia. The trachea is incised and a 14-16-gauge modified intravenous catheter is inserted and tied in place as an endotracheal tube. The animal is placed in right lateral recumbency and initially placed on a Harvard ventilator with a tidal volume of 5-10 ml/kg. 100% O2 is delivered to the animals by the ventilator. ECG electrodes are placed to record a standard Lead II ECG. The surgical site is cleaned with alcohol swab, and a skin incision is made over rib cage over the 4th-5th intercostal space. […] The ECG is monitored for S-T changes indicative of ischemia. […] The ECG is monitored for the first 10 minutes of reperfusion. […]

For bromo-quercetin, the “preventing or reducing myocardial damage” value [1] was “effective” and the infarct size [2] was “reduce infarct size”.

From patent US20020132845A1, “Compositions and methods for the prevention and treatment of tissue ischemia” (priority 2000, published 2002)
